PubChem BioAssay AID256 (DTP/NCI, 2004)
Several values for one entry are separate records, joined by “and”; a condition that tells them apart may be missing. Equal entries are not always repeated. Inconclusive results and toxic doses are left out.

Test system: CD2F1 mice, L1210 leukemia ip, survival T/C
Experiment: NCI In Vivo Anticancer Drug Screen. Data for tumor model L1210 Leukemia (intraperitoneal) in CD2F1 (CDF1) mice
Details: endpoint: mean survival time, higher = longer survival
Method in brief: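 Read-out first: treated-group measurement over vehicle-control measurement, expressed as a ratio. Animals bore a transplanted tumor line and were dosed with compound or vehicle.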

[1] = dose: 100.0 mg/kg/injection, schedule: Q01DX009 (ip), vehicle: saline with Tween-80
[2] = dose: 200.0 mg/kg/injection, schedule: Q01DX009 (ip), vehicle: saline with Tween-80
[3] = dose: 400.0 mg/kg/injection, schedule: Q01DX009 (ip), vehicle: saline with Tween-80
[4] = dose: 100.0 mg/kg/injection, schedule: Q04DX003 (ip), vehicle: saline with Tween-80
[5] = dose: 200.0 mg/kg/injection, schedule: Q04DX003 (ip), vehicle: saline with Tween-80
[6] = dose: 400.0 mg/kg/injection, schedule: Q04DX003 (ip), vehicle: saline with Tween-80
[7] = dose: 100.0 mg/kg/injection, schedule: Q01DX001 (ip), vehicle: saline with Tween-80

For `CCCCOP(=O)(OCCCC)C(CCC)OP(OC(CCC)P(=O)(OCCCC)OCCCC)OC(CCC)P(=O)(OCCCC)OCCCC` (stereo not drawn), the T/C (dose: 100.0 mg/kg/injection, schedule: Q04DX002 (ip), vehicle: saline) was 103 % of control, the T/C (dose: 200.0 mg/kg/injection, schedule: Q04DX002 (ip), vehicle: saline) was 89 % of control and the T/C (dose: 400.0 mg/kg/injection, schedule: Q04DX002 (ip), vehicle: saline) was 97 % of control.

`CCOC(=O)[C@]1(Br)CC[C@@]1(Br)C(=O)OCC` was tested, and the T/C (dose: 12.5 mg/kg/injection, schedule: Q01DX009 (ip), vehicle: saline with Tween-80) was 96 % of control, the T/C (dose: 25.0 mg/kg/injection, schedule: Q01DX009 (ip), vehicle: saline with Tween-80) was 95 % of control and 96 % of control and the T/C (dose: 50.0 mg/kg/injection, schedule: Q01DX009 (ip), vehicle: saline with Tween-80) was 92 % of control and 96 % of control. The T/C [1] was 93 % of control and 101 % of control, the T/C [2] was 100 % of control and 101 % of control and the T/C [3] was 98 % of control and 106 % of control.

With `O=C(CN1C(=O)CCC1=O)NCCc1cccc(OCc2ccccc2)c1` the T/C [1] was 94 % of control, the T/C [4] was 97 % of control and the T/C [2] was 89 % of control. The T/C [5] was 97 % of control, the T/C [3] was 91 % of control and the T/C [6] was 97 % of control.

For `COC(=O)C1CCN1C(C)C` (stereo not drawn), the T/C (dose: 12.5 mg/kg/injection, schedule: Q01DX009 (ip), vehicle: other) was 106 % of control, the T/C (dose: 25.0 mg/kg/injection, schedule: Q01DX009 (ip), vehicle: other) was 106 % of control and the T/C (dose: 50.0 mg/kg/injection, schedule: Q01DX009 (ip), vehicle: other) was 96 % of control. The T/C (dose: 100.0 mg/kg/injection, schedule: Q01DX009 (ip), vehicle: other) was 98 % of control and the T/C (dose: 200.0 mg/kg/injection, schedule: Q01DX009 (ip), vehicle: other) was 98 % of control.

`CC(=O)Nc1cc(C)ccc1O` was tested, and the T/C [1] was 98 % of control, the T/C [4] was 96 % of control and the T/C [2] was 95 % of control. For the same molecule, the T/C [5] was 104 % of control, the T/C [3] was 87 % of control and the T/C [6] was 90 % of control.

With `CS(=O)(=O)OCCC(=O)N1CCN(C(=O)CCOS(C)(=O)=O)CC1` the T/C (dose: 4.0 mg/kg/injection, schedule: Q03HX024 (oral), vehicle: saline) was 97 % of control, the T/C (dose: 8.0 mg/kg/injection, schedule: Q03HX008 (ip), vehicle: saline) was 120 % of control and the T/C (dose: 8.0 mg/kg/injection, schedule: Q03HX008 (oral), vehicle: saline) was 93 % of control. For the same molecule, the T/C (dose: 8.0 mg/kg/injection, schedule: Q03HX016 (oral), vehicle: saline) was 94 % of control, the T/C (dose: 8.0 mg/kg/injection, schedule: Q03HX024 (oral), vehicle: saline) was 100 % of control and the T/C (dose: 16.0 mg/kg/injection, schedule: Q01DX009 (oral), vehicle: saline) was 101 % of control. The T/C (dose: 16.0 mg/kg/injection, schedule: Q03HX008 (oral), vehicle: saline) was 96 % of control, the T/C (dose: 16.0 mg/kg/injection, schedule: Q03HX016 (ip), vehicle: saline) was 169 % of control and the T/C (dose: 16.0 mg/kg/injection, schedule: Q03HX016 (oral), vehicle: saline) was 100 % of control. The T/C (dose: 16.0 mg/kg/injection, schedule: Q03HX024 (ip), vehicle: saline) was 200 % of control, the T/C (dose: 16.0 mg/kg/injection, schedule: Q03HX024 (oral), vehicle: saline) was 109 % of control and the T/C (dose: 32.0 mg/kg/injection, schedule: Q01DX009 (ip), vehicle: saline) was 165 % of control. For the same molecule, the T/C (dose: 32.0 mg/kg/injection, schedule: Q01DX009 (oral), vehicle: saline) was 103 % of control, the T/C (dose: 32.0 mg/kg/injection, schedule: Q03HX008 (ip), vehicle: saline) was 182 % of control and the T/C (dose: 32.0 mg/kg/injection, schedule: Q03HX008 (oral), vehicle: saline) was 102 % of control. The T/C (dose: 32.0 mg/kg/injection, schedule: Q03HX016 (ip), vehicle: saline) was 207 % of control, the T/C (dose: 32.0 mg/kg/injection, schedule: Q03HX016 (oral), vehicle: saline) was 95 % of control and the T/C (dose: 32.0 mg/kg/injection, schedule: Q03HX024 (ip), vehicle: saline) was 168 % of control. For the same molecule, the T/C (dose: 32.0 mg/kg/injection, schedule: Q03HX024 (oral), vehicle: saline) was 114 % of control, the T/C (dose: 32.0 mg/kg/injection, schedule: Q04DX003 (oral), vehicle: saline) was 100 % of control and the T/C (dose: 64.0 mg/kg/injection, schedule: Q01DX001 (oral), vehicle: saline) was 98 % of control. For the same molecule, the T/C (dose: 64.0 mg/kg/injection, schedule: Q01DX009 (ip), vehicle: saline) was 208 % of control, the T/C (dose: 64.0 mg/kg/injection, schedule: Q01DX009 (oral), vehicle: saline) was 105 % of control and the T/C (dose: 64.0 mg/kg/injection, schedule: Q03HX008 (oral), vehicle: saline) was 106 % of control. The T/C (dose: 64.0 mg/kg/injection, schedule: Q03HX016 (ip), vehicle: saline) was 103 % of control, the T/C (dose: 64.0 mg/kg/injection, schedule: Q03HX016 (oral), vehicle: saline) was 97 % of control and the T/C (dose: 64.0 mg/kg/injection, schedule: Q04DX003 (oral), vehicle: saline) was 105 % of control. The T/C (dose: 64.0 mg/kg/injection, schedule: Q08DX002 (oral), vehicle: saline) was 92 % of control, the T/C (dose: 128.0 mg/kg/injection, schedule: Q01DX001 (oral), vehicle: saline) was 98 % of control and the T/C (dose: 128.0 mg/kg/injection, schedule: Q01DX009 (ip), vehicle: saline) was 124 % of control. For the same molecule, the T/C (dose: 128.0 mg/kg/injection, schedule: Q01DX009 (oral), vehicle: saline) was 110 % of control, the T/C (dose: 128.0 mg/kg/injection, schedule: Q04DX003 (ip), vehicle: saline) was 193 % of control and the T/C (dose: 128.0 mg/kg/injection, schedule: Q04DX003 (oral), vehicle: saline) was 95 % of control. The T/C (dose: 128.0 mg/kg/injection, schedule: Q08DX002 (ip), vehicle: saline) was 194 % of control, the T/C (dose: 128.0 mg/kg/injection, schedule: Q08DX002 (oral), vehicle: saline) was 90 % of control and the T/C (dose: 256.0 mg/kg/injection, schedule: Q01DX001 (ip), vehicle: saline) was 166 % of control. For the same molecule, the T/C (dose: 256.0 mg/kg/injection, schedule: Q01DX001 (oral), vehicle: saline) was 94 % of control, the T/C (dose: 256.0 mg/kg/injection, schedule: Q01DX009 (oral), vehicle: saline) was 110 % of control and the T/C (dose: 256.0 mg/kg/injection, schedule: Q04DX003 (ip), vehicle: saline) was 181 % of control. For the same molecule, the T/C (dose: 256.0 mg/kg/injection, schedule: Q04DX003 (oral), vehicle: saline) was 100 % of control, the T/C (dose: 256.0 mg/kg/injection, schedule: Q08DX002 (ip), vehicle: saline) was 228 % of control and the T/C (dose: 256.0 mg/kg/injection, schedule: Q08DX002 (oral), vehicle: saline) was 96 % of control. The T/C (dose: 512.0 mg/kg/injection, schedule: Q01DX001 (ip), vehicle: saline) was 89 % of control, the T/C (dose: 512.0 mg/kg/injection, schedule: Q01DX001 (oral), vehicle: saline) was 96 % of control and the T/C (dose: 512.0 mg/kg/injection, schedule: Q04DX003 (ip), vehicle: saline) was 103 % of control. For the same molecule, the T/C (dose: 512.0 mg/kg/injection, schedule: Q08DX002 (oral), vehicle: saline) was 94 % of control.

For `c1ccc(CCc2ccccn2)nc1`, the T/C (dose: 25.0 mg/kg/injection, schedule: Q04DX003 (ip), vehicle: saline with Tween-80) was 105 % of control, the T/C (dose: 50.0 mg/kg/injection, schedule: Q04DX003 (ip), vehicle: saline with Tween-80) was 100 % of control and the T/C [4] was 91 % of control and 103 % of control.

With `CN(C)N=Nc1ccccc1C(=O)NCC(N)=O` the T/C (dose: 18.75 mg/kg/injection, schedule: Q01DX009 (ip), vehicle: Klucel (hydroxypropylcellulose) (HPC)) was 103 % of control and 107 % of control and the T/C (dose: 37.5 mg/kg/injection, schedule: Q01DX009 (ip), vehicle: Klucel (hydroxypropylcellulose) (HPC)) was 115 % of control and 112 % of control.

`CCCN1C(=O)C=CC1=O` was tested, and the T/C [7] was 91 % of control.

In the case of `Nc1c(Cl)c(Cl)c(Br)c(Cl)c1Cl`, the T/C [4] is reported as 91 % of control, the T/C [5] is reported as 105 % of control and the T/C [6] is reported as 97 % of control.

With `CCCCCCCCCCNC(C1=C(O)c2ccccc2C(=O)C1=O)c1ccccc1` (stereo not drawn) the T/C (dose: 6.25 mg/kg/injection, schedule: Q01DX001 (ip), vehicle: saline with Tween-80) was 107 % of control, the T/C (dose: 12.5 mg/kg/injection, schedule: Q01DX001 (ip), vehicle: saline with Tween-80) was 100 % of control and the T/C (dose: 25.0 mg/kg/injection, schedule: Q01DX001 (ip), vehicle: saline with Tween-80) was 92 % of control.

In the case of `CCCCC=C(C1CCCC1C)C1CCCC1C` (stereo not drawn), the T/C [7] is reported as 97 % of control, the T/C (dose: 200.0 mg/kg/injection, schedule: Q01DX001 (ip), vehicle: saline with Tween-80) is reported as 102 % of control and the T/C (dose: 400.0 mg/kg/injection, schedule: Q01DX001 (ip), vehicle: saline with Tween-80) is reported as 94 % of control.

`O=S1(=O)CC(S(=O)(=O)O)C(S(=O)(=O)O)C1` (stereo not drawn) was tested, and the T/C (dose: 100.0 mg/kg/injection, schedule: Q04DX003 (ip), vehicle: saline) was 93 % of control, the T/C (dose: 200.0 mg/kg/injection, schedule: Q04DX003 (ip), vehicle: saline) was 101 % of control and the T/C (dose: 400.0 mg/kg/injection, schedule: Q04DX003 (ip), vehicle: saline) was 93 % of control.

For `CC1(C(=O)O)OC12CCCCC2` (stereo not drawn), the T/C [1] was 107 % of control, the T/C [2] was 108 % of control and the T/C [3] was 108 % of control.
